Assay results: paper PMC12373846, “Hemoglobin as a pseudoperoxidase and drug target for oxidative stress-related diseases” (Signal Transduction and Targeted Therapy, 2025)

Columns and labels:
Assay in all cases: KINOMEscan
Format in all cases: binding
Conditions in all cases: 10000 nM; read-out: Percent Control
[1] = molecular target: T1, ABL1(E255K)-phosphorylated (Homo sapiens, UniProt P00519, E255K)
T1 construct: purchased DiscoverX KINOMEscan scanEDGE; Eurofins Cerep SafetyScreen87
Description: (§1) The possibility of KDS12025 on kinase off-target, the KINOMEscan panel of scanEDGE assay was conducted in DiscoverX (CA, USA) using a site-directed competition binding with the test compounds. The assay results are given in Supplementary Table 4 and experimental information is available on the DiscoverX web page (www.discoverx.com). Moreover, the Delta SafetyScreen87 panel assay was conducted in Eurofins Discovery (Cerep, France). The assay results are given in Supplementary Table 5 and experimental information is available on the DiscoverX web page (https://www.eurofinsdiscoveryservices.com).

[2] = molecular target: T2, ABL1(T315I)-phosphorylated (Homo sapiens, UniProt P00519, T315I)
T2 construct: purchased DiscoverX KINOMEscan scanEDGE; Eurofins Cerep SafetyScreen87
Description: as §1

ACVR1B = molecular target: T3, ACVR1B (Homo sapiens, UniProt P36896)
T3 construct: purchased DiscoverX KINOMEscan scanEDGE; Eurofins Cerep SafetyScreen87
Description: as §1

AKT1 = molecular target: T4, AKT1 (Homo sapiens, UniProt P31749)
T4 construct: purchased DiscoverX KINOMEscan scanEDGE; Eurofins Cerep SafetyScreen87
Description: as §1

AKT2 = molecular target: T5, AKT2 (Homo sapiens, UniProt P31751)
T5 construct: purchased DiscoverX KINOMEscan scanEDGE; Eurofins Cerep SafetyScreen87
Description: as §1

ALK = molecular target: T6, ALK (Homo sapiens, UniProt Q9UM73)
T6 construct: purchased DiscoverX KINOMEscan scanEDGE; Eurofins Cerep SafetyScreen87
Description: as §1

BMPR2 = molecular target: T7, BMPR2 (Homo sapiens, UniProt Q13873)
T7 construct: purchased DiscoverX KINOMEscan scanEDGE; Eurofins Cerep SafetyScreen87
Description: as §1

BRAF(V600E) = molecular target: T8, BRAF(V600E) (Homo sapiens, UniProt P15056, V600E)
T8 construct: purchased DiscoverX KINOMEscan scanEDGE; Eurofins Cerep SafetyScreen87
Description: as §1

BTK = molecular target: T9, BTK (Homo sapiens, UniProt Q06187)
T9 construct: purchased DiscoverX KINOMEscan scanEDGE; Eurofins Cerep SafetyScreen87
Description: as §1

CDK11 = molecular target: T10, CDK11 (Homo sapiens, UniProt Q9BWU1)
T10 construct: purchased DiscoverX KINOMEscan scanEDGE; Eurofins Cerep SafetyScreen87
Description: as §1

CHEK1 = molecular target: T11, CHEK1 (Homo sapiens, UniProt O14757)
T11 construct: purchased DiscoverX KINOMEscan scanEDGE; Eurofins Cerep SafetyScreen87
Description: as §1

CSNK1D = molecular target: T12, CSNK1D (Homo sapiens, UniProt P48730)
T12 construct: purchased DiscoverX KINOMEscan scanEDGE; Eurofins Cerep SafetyScreen87
Description: as §1

EPHA2 = molecular target: T13, EPHA2 (Homo sapiens, UniProt P29317)
T13 construct: purchased DiscoverX KINOMEscan scanEDGE; Eurofins Cerep SafetyScreen87
Description: as §1

ERBB4 = molecular target: T14, ERBB4 (Homo sapiens, UniProt Q15303)
T14 construct: purchased DiscoverX KINOMEscan scanEDGE; Eurofins Cerep SafetyScreen87
Description: as §1

ERK1 = molecular target: T15, ERK1 (Homo sapiens, UniProt P27361)
T15 construct: purchased DiscoverX KINOMEscan scanEDGE; Eurofins Cerep SafetyScreen87
Description: as §1

FGFR3 = molecular target: T16, FGFR3 (Homo sapiens, UniProt P22607)
T16 construct: purchased DiscoverX KINOMEscan scanEDGE; Eurofins Cerep SafetyScreen87
Description: as §1

FLT3 = molecular target: T17, FLT3 (Homo sapiens, UniProt P36888)
T17 construct: purchased DiscoverX KINOMEscan scanEDGE; Eurofins Cerep SafetyScreen87
Description: as §1

IKK-alpha = molecular target: T18, IKK-alpha (Homo sapiens, UniProt O15111)
T18 construct: purchased DiscoverX KINOMEscan scanEDGE; Eurofins Cerep SafetyScreen87
Description: as §1

INSR = molecular target: T19, INSR (Homo sapiens, UniProt P06213)
T19 construct: purchased DiscoverX KINOMEscan scanEDGE; Eurofins Cerep SafetyScreen87
Description: as §1

KIT(D816V) = molecular target: T20, KIT(D816V) (Homo sapiens, UniProt P10721, D816V)
T20 construct: purchased DiscoverX KINOMEscan scanEDGE; Eurofins Cerep SafetyScreen87
Description: as §1

KIT(V559D,T670I) = molecular target: T21, KIT(V559D,T670I) (Homo sapiens, UniProt P10721, T670I/V559D)
T21 construct: purchased DiscoverX KINOMEscan scanEDGE; Eurofins Cerep SafetyScreen87
Description: as §1

LKB1 = molecular target: T22, LKB1 (Homo sapiens, UniProt Q15831)
T22 construct: purchased DiscoverX KINOMEscan scanEDGE; Eurofins Cerep SafetyScreen87
Description: as §1

MEK2 = molecular target: T23, MEK2 (Homo sapiens, UniProt P36507)
T23 construct: purchased DiscoverX KINOMEscan scanEDGE; Eurofins Cerep SafetyScreen87
Description: as §1

MKNK2 = molecular target: T24, MKNK2 (Homo sapiens, UniProt Q9HBH9)
T24 construct: purchased DiscoverX KINOMEscan scanEDGE; Eurofins Cerep SafetyScreen87
Description: as §1

PCTK1 = molecular target: T25, PCTK1 (Homo sapiens, UniProt Q00536)
T25 construct: purchased DiscoverX KINOMEscan scanEDGE; Eurofins Cerep SafetyScreen87
Description: as §1

PDGFRB = molecular target: T26, PDGFRB (Homo sapiens, UniProt P09619)
T26 construct: purchased DiscoverX KINOMEscan scanEDGE; Eurofins Cerep SafetyScreen87
Description: as §1

PIK3CG = molecular target: T27, PIK3CG (Homo sapiens, UniProt P48736)
T27 construct: purchased DiscoverX KINOMEscan scanEDGE; Eurofins Cerep SafetyScreen87
Description: as §1

PIM1 = molecular target: T28, PIM1 (Homo sapiens, UniProt P11309)
T28 construct: purchased DiscoverX KINOMEscan scanEDGE; Eurofins Cerep SafetyScreen87
Description: as §1

PKAC-alpha = molecular target: T29, PKAC-alpha (Homo sapiens, UniProt P17612)
T29 construct: purchased DiscoverX KINOMEscan scanEDGE; Eurofins Cerep SafetyScreen87
Description: as §1

PLK3 = molecular target: T30, PLK3 (Homo sapiens, UniProt Q9H4B4)
T30 construct: purchased DiscoverX KINOMEscan scanEDGE; Eurofins Cerep SafetyScreen87
Description: as §1

PRKCE = molecular target: T31, PRKCE (Homo sapiens, UniProt Q02156)
T31 construct: purchased DiscoverX KINOMEscan scanEDGE; Eurofins Cerep SafetyScreen87
Description: as §1

RET = molecular target: T32, RET (Homo sapiens, UniProt P07949)
T32 construct: purchased DiscoverX KINOMEscan scanEDGE; Eurofins Cerep SafetyScreen87
Description: as §1

RIOK2 = molecular target: T33, RIOK2 (Homo sapiens, UniProt Q9BVS4)
T33 construct: purchased DiscoverX KINOMEscan scanEDGE; Eurofins Cerep SafetyScreen87
Description: as §1

ROCK2 = molecular target: T34, ROCK2 (Homo sapiens, UniProt O75116)
T34 construct: purchased DiscoverX KINOMEscan scanEDGE; Eurofins Cerep SafetyScreen87
Description: as §1

[3] = molecular target: T35, RSK2(Kin.Dom.1-N-terminal) (Homo sapiens, UniProt P51812)
T35 construct: RSK2(Kin.Dom.1-N-terminal); purchased DiscoverX KINOMEscan scanEDGE; Eurofins Cerep SafetyScreen87
Description: as §1

TGFBR1 = molecular target: T36, TGFBR1 (Homo sapiens, UniProt P36897)
T36 construct: purchased DiscoverX KINOMEscan scanEDGE; Eurofins Cerep SafetyScreen87
Description: as §1

TIE2 = molecular target: T37, TIE2 (Homo sapiens, UniProt Q02763)
T37 construct: purchased DiscoverX KINOMEscan scanEDGE; Eurofins Cerep SafetyScreen87
Description: as §1

ULK2 = molecular target: T38, ULK2 (Homo sapiens, UniProt Q8IYT8)
T38 construct: purchased DiscoverX KINOMEscan scanEDGE; Eurofins Cerep SafetyScreen87
Description: as §1

p38-beta = molecular target: T39, p38-beta (Homo sapiens, UniProt Q15759)
T39 construct: purchased DiscoverX KINOMEscan scanEDGE; Eurofins Cerep SafetyScreen87
Description: as §1

T5 sequence (P31751 whole entry): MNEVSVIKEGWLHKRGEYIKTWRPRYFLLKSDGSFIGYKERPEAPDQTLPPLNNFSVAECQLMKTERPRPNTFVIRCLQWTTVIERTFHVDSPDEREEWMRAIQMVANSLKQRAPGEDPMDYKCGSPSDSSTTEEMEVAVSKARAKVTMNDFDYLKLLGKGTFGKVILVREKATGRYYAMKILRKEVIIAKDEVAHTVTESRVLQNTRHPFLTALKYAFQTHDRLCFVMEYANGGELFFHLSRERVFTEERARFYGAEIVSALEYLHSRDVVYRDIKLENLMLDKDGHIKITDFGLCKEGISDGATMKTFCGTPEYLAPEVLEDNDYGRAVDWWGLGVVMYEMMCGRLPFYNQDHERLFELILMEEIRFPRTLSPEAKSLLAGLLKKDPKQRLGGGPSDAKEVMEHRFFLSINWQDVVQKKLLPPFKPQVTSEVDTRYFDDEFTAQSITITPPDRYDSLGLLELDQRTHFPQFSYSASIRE
T3 sequence (P36896 24-505): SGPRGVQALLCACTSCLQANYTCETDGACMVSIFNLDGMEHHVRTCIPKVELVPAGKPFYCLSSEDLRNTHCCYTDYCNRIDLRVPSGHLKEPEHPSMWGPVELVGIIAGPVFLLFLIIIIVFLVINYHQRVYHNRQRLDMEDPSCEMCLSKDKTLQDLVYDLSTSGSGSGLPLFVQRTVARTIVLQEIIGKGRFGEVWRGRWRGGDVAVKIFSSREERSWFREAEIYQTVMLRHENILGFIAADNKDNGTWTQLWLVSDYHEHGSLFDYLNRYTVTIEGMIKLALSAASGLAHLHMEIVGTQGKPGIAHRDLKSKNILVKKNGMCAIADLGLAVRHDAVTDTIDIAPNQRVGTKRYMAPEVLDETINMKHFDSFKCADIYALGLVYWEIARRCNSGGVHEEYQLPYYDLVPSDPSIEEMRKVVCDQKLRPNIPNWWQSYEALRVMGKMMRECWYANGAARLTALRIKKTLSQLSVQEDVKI
T32 sequence (P07949 29-1114): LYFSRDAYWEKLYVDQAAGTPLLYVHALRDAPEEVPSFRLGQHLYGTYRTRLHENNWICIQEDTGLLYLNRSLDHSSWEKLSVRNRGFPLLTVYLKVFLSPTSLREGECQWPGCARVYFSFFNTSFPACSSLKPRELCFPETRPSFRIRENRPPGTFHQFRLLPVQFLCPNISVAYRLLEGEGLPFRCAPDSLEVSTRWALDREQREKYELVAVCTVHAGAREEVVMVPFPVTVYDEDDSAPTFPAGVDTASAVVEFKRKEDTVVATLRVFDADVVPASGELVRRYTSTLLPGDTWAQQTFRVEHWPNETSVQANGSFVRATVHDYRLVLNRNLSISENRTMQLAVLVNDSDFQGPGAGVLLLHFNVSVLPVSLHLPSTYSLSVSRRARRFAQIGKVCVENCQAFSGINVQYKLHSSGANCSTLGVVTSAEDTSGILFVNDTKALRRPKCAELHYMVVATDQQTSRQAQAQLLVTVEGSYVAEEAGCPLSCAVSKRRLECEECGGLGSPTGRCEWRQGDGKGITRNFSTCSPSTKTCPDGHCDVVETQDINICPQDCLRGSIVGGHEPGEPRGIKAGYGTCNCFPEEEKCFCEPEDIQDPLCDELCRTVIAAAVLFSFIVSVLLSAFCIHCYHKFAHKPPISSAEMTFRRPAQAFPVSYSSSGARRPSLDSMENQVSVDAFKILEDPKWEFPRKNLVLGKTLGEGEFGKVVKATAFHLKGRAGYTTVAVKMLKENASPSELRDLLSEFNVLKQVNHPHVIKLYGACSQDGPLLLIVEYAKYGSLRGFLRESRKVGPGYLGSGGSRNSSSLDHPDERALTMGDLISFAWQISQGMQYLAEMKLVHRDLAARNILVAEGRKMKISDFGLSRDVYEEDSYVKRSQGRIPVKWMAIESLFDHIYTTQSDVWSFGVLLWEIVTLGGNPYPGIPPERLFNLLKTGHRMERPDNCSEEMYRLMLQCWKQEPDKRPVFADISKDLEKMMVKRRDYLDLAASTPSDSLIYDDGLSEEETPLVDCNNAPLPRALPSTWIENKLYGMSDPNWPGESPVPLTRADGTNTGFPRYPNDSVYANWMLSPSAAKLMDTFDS
T21 sequence (P10721 26-976 V559D/T670I): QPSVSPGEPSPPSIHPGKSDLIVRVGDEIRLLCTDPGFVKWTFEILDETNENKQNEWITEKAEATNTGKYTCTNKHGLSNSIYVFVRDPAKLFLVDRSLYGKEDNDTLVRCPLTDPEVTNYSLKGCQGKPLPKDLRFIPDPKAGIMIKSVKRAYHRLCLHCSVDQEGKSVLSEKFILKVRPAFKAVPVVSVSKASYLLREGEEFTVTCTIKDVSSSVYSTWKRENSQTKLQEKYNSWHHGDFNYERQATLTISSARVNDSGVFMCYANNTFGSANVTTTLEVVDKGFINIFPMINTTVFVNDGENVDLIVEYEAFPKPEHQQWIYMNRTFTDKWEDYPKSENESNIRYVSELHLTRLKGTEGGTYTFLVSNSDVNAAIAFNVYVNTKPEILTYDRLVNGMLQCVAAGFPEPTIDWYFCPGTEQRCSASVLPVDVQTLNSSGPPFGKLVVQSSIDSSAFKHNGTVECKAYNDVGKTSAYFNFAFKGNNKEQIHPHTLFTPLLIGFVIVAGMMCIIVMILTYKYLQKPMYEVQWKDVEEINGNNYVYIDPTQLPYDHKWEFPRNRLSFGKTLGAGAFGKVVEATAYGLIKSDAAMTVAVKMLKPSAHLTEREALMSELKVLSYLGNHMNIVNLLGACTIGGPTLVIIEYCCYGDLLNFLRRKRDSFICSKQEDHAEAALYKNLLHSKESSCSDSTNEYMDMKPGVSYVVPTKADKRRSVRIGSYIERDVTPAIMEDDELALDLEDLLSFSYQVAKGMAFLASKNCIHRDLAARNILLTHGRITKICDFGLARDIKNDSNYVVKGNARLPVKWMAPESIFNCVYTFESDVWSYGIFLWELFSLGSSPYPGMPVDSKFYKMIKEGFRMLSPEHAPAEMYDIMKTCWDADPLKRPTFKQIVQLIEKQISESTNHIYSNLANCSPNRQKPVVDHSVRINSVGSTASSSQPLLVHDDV
T18 sequence (O15111 whole entry): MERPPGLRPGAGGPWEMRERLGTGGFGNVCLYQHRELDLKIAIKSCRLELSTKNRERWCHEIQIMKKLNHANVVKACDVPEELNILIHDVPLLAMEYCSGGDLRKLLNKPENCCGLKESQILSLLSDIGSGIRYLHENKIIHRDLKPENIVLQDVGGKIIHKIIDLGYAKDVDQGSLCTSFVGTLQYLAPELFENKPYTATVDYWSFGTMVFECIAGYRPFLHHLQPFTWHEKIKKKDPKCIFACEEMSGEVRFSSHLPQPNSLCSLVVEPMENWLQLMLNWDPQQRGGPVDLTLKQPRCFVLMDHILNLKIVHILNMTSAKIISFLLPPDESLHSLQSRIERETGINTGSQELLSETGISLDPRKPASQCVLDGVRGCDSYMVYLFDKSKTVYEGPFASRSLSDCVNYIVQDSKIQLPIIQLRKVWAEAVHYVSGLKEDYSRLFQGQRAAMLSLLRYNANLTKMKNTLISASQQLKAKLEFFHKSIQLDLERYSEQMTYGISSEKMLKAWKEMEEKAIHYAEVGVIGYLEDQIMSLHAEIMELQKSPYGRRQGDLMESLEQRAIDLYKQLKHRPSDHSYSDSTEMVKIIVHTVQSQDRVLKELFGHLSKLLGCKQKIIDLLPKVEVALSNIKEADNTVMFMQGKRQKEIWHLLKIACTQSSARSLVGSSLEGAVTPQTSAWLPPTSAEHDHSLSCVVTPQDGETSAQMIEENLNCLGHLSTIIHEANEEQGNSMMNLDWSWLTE
T17 sequence (P36888 27-993): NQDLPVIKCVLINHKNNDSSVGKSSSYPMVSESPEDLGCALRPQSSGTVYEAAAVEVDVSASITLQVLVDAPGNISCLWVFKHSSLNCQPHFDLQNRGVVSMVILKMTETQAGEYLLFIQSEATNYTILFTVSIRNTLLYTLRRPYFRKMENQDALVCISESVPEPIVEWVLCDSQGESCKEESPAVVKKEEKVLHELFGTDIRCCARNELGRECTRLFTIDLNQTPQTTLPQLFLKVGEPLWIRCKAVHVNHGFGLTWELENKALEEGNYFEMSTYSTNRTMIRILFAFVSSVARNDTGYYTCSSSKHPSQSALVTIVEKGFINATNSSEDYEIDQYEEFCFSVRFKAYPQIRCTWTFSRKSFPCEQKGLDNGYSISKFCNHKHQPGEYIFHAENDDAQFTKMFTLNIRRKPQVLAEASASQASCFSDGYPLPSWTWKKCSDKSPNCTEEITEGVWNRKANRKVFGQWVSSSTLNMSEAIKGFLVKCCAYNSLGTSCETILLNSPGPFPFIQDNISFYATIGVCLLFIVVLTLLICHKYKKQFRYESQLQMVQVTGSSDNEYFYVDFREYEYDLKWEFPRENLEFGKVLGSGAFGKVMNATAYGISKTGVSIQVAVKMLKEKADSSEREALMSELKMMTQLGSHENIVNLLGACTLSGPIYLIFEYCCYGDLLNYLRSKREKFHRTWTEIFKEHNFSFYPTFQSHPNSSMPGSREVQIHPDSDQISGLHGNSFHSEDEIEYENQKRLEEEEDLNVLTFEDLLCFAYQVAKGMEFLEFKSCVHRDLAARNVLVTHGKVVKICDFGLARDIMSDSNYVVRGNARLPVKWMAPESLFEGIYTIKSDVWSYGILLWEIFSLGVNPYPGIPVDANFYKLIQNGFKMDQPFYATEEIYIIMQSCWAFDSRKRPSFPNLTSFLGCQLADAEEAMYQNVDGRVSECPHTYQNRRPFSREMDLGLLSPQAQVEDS
T39 sequence (Q15759 whole entry): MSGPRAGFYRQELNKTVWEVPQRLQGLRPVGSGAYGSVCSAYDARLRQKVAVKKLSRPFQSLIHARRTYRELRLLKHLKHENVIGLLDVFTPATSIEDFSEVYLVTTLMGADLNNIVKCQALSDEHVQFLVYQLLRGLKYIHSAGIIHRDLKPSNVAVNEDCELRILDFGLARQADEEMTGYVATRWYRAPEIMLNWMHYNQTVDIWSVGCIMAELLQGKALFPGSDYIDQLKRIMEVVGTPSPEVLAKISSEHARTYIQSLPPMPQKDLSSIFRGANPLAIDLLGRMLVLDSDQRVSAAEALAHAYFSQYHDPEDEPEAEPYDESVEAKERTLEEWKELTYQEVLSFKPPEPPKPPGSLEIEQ

## CNc1ccc(NCCc2ccccc2OC)cc1.Cl [KDS12025, N^1-(2-methoxyphenethyl)-N^4-methylbenzene-1,4-diamine hydrochloride salt]
[1]
  remaining binding at 10 µM: 100%
[2]
  remaining binding at 10 µM: 84%
ACVR1B
  remaining binding at 10 µM: 100%
AKT1
  remaining binding at 10 µM: 75%
AKT2
  remaining binding at 10 µM: 94%
ALK
  remaining binding at 10 µM: 98%
BMPR2
  remaining binding at 10 µM: 92%
BRAF(V600E)
  remaining binding at 10 µM: 100%
BTK
  remaining binding at 10 µM: 100%
CDK11
  remaining binding at 10 µM: 73%
CHEK1
  remaining binding at 10 µM: 82%
CSNK1D
  remaining binding at 10 µM: 88%
EPHA2
  remaining binding at 10 µM: 89%
ERBB4
  remaining binding at 10 µM: 92%
ERK1
  remaining binding at 10 µM: 83%
FGFR3
  remaining binding at 10 µM: 91%
FLT3
  remaining binding at 10 µM: 100%
IKK-alpha
  remaining binding at 10 µM: 100%
INSR
  remaining binding at 10 µM: 85%
KIT(D816V)
  remaining binding at 10 µM: 91%
KIT(V559D,T670I)
  remaining binding at 10 µM: 94%
LKB1
  remaining binding at 10 µM: 80%
MEK2
  remaining binding at 10 µM: 91%
MKNK2
  remaining binding at 10 µM: 95%
PCTK1
  remaining binding at 10 µM: 94%
PDGFRB
  remaining binding at 10 µM: 92%
PIK3CG
  remaining binding at 10 µM: 100%
PIM1
  remaining binding at 10 µM: 95%
PKAC-alpha
  remaining binding at 10 µM: 74%
PLK3
  remaining binding at 10 µM: 75%
PRKCE
  remaining binding at 10 µM: 100%
RET
  remaining binding at 10 µM: 100%
RIOK2
  remaining binding at 10 µM: 98%
ROCK2
  remaining binding at 10 µM: 85%
[3]
  remaining binding at 10 µM: 84%
TGFBR1
  remaining binding at 10 µM: 96%
TIE2
  remaining binding at 10 µM: 100%
ULK2
  remaining binding at 10 µM: 95%
p38-beta
  remaining binding at 10 µM: 100%
